Reference: publication PMC12504763, “Antiproliferation, 3D-multicellular spheroid and VEGFR-2 inhibitory properties of spiroindolin-2-ones with phosphonate function” (Scientific Reports, 2025)
Where two headings read alike, the source gives them in different places.

Columns and labels:
[1] = tested on: HCT116 (colon) cancer cell line; experiment: 2D-monolayer antiproliferation (MTT) against HCT116; format: cell-based, human; conditions: for IC50: Homo sapiens, HCT-116; for SI (selectivity index) HCT116: IC50 of RPE1 normal cell/IC50 of HCT116
[2] = tested on: PaCa2 (pancreatic) cancer cell line; experiment: 2D-monolayer antiproliferation (MTT) against PaCa2; format: cell-based, human; conditions: for 1/(observed property): 1/observed IC50 (μM), PaCa2; for IC50: Homo sapiens, PaCa-2, MTT, 72 h incubation, PaCa2 pancreatic, read-out: IC50, μM ± SEM PaCa2; for SI (selectivity index) PaCa2: IC50 of RPE1 normal cell/IC50 of PaCa2
[3] = tested on: MCF7 (breast) cancer cell line; experiment: 2D-monolayer antiproliferation (MTT) against MCF7; format: cell-based, human; conditions: for IC50: Homo sapiens, MTT, 72 h incubation, MCF7 breast, read-out: IC50, μM ± SEM MCF7; for SI (selectivity index) MCF7: IC50 of RPE1 normal cell/IC50 of MCF7
[4] = tested on: A549 (lung) cancer cell line; experiment: 2D-monolayer antiproliferation (MTT) against A549; format: cell-based, human; conditions: for IC50: Homo sapiens, MTT, 72 h incubation, A549 lung, read-out: IC50, μM ± SEM A549; for SI (selectivity index) A549: IC50 of RPE1 normal cell/IC50 of A549
[5] = tested on: RPE1 (normal human immortalized retinal pigment epithelial cell line); experiment: cells; format: cell-based; conditions: for IC50: Homo sapiens, RPE-1, MTT, normal RPE1 cell, read-out: IC50, μM ± SEM RPE1; for selectivity index (SI): IC50 against RPE1 compared to the tested cancer cell line(s), in words
[6] = biological target: T1, VEGFR-2 (Homo sapiens, UniProt P35968); experiment: cell-based; format: cell-based; conditions: for inhibition at 10 µM: HCT-116, HCT116; for VEGFR-2 pg/mL ± SEM HCT116: at 10 μM, control 317.80 ± 3.5
T1 construct: endogenous in cells; host or cells: HCT116, PaCa2, MCF7 (human cancer cell lines, ATCC origin)
T1 sequence (P35968 20-1356): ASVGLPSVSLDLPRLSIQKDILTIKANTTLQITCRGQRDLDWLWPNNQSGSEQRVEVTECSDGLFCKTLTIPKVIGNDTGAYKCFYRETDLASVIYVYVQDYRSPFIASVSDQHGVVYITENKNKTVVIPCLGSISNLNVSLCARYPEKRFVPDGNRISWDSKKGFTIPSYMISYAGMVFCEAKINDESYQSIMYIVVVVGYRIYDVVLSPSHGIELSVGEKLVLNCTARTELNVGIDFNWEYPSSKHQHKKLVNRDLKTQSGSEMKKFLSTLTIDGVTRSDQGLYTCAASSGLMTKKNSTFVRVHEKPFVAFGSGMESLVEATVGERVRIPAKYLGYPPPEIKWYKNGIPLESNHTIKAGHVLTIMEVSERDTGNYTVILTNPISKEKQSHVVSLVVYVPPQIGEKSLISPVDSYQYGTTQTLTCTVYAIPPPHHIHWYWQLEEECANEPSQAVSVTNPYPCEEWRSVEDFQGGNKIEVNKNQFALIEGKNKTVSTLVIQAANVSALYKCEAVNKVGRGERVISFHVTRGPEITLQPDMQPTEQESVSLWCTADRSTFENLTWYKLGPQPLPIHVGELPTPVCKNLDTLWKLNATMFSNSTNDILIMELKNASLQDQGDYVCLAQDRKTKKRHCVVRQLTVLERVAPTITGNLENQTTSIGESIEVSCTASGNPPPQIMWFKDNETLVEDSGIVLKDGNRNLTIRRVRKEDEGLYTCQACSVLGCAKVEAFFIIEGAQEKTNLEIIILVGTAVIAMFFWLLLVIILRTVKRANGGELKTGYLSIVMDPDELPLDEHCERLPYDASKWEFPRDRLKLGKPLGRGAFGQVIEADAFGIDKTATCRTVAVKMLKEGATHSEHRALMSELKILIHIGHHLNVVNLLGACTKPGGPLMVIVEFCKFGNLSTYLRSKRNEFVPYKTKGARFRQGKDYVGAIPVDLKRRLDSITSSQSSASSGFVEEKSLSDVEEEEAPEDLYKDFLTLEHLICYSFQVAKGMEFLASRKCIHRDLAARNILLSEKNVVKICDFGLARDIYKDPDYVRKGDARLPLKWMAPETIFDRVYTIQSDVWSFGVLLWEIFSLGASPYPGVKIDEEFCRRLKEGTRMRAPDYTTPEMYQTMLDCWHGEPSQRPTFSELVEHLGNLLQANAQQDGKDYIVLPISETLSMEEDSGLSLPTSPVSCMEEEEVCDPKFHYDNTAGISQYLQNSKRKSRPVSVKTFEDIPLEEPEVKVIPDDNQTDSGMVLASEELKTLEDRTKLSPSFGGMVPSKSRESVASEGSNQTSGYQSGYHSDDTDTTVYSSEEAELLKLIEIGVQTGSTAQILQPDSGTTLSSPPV

[7] = biological target: T1, VEGFR-2; experiment: cell-based; format: cell-based; conditions: for inhibition at 10 µM: PaCa-2, PaCa2; for VEGFR-2 pg/mL ± SEM PaCa2: at 10 μM, control 326.80 ± 1.9
[8] = biological target: T1, VEGFR-2; experiment: cell-based; format: cell-based; conditions: for inhibition at 10 µM: MCF7; for VEGFR-2 pg/mL ± SEM MCF7: at 10 μM, control 258.70 ± 2.3
[9] = biological target: T2, COX-1 (Ovis aries, UniProt P05979); experiment: biochemical; conditions: 3 replicates, read-out: % Inhibition of COX-1 ± SEM
T2 construct: purchased BioVision incorporated USA K548–100
T2 sequence (P05979 25-600): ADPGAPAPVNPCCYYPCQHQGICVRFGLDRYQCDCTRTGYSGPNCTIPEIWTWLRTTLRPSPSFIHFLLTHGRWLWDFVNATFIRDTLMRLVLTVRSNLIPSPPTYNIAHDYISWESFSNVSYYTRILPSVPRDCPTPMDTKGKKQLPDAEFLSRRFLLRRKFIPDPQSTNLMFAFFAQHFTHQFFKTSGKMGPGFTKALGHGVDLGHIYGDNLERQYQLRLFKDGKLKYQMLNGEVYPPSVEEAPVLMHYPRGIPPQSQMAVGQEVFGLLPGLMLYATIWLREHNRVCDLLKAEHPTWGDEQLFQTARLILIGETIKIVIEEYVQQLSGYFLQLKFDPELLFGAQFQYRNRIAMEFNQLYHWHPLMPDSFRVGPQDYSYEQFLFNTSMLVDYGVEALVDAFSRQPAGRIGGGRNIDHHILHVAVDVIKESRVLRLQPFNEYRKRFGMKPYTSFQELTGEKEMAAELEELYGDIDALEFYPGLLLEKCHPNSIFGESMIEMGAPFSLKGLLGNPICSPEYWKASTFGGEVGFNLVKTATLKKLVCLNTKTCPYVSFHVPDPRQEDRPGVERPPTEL

[10] = biological target: T3, COX-2 (Homo sapiens, UniProt P35354); experiment: biochemical; conditions: for inhibition at 10 µM: 3 replicates, read-out: % Inhibition of COX-2 ± SEM; for SI (selectivity index, COX-2/COX-1): at 10 μM
T3 construct: purchased BioVision incorporated USA K548–100
T3 sequence (P35354 18-604): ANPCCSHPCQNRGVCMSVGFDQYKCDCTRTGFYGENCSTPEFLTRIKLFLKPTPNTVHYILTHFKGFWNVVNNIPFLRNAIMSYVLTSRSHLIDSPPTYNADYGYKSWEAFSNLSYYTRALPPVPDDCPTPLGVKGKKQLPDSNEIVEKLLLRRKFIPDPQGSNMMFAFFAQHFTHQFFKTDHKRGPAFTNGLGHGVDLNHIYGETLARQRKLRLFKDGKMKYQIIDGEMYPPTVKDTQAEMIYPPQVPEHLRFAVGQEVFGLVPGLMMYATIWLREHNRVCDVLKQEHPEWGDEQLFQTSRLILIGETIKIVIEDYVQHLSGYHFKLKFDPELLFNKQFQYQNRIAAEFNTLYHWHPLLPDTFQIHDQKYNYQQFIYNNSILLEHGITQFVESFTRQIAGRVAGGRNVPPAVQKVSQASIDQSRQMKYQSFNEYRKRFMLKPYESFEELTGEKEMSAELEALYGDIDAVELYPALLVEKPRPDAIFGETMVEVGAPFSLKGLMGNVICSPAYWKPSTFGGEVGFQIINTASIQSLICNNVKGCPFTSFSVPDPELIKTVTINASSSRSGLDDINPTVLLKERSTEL

[11] = tested on: TNF-α; experiment: TNF-α inhibitory properties (ELISA), HCT116 cell lysate; format: cell-based, human; conditions: at 10 μM; for TNF-α pg/mL (± SEM) HCT116: control 95.74 ± 0.5
[12] = tested on: TNF-α; experiment: TNF-α inhibitory properties (ELISA), PaCa2 cell lysate; format: cell-based, human; conditions: at 10 μM; for TNF-α pg/mL (± SEM) PaCa2: control 111.8 ± 2.0
[13] = tested on: TNF-α; experiment: TNF-α inhibitory properties (ELISA), MCF7 cell lysate; format: cell-based, human; conditions: at 10 μM; for TNF-α pg/mL (± SEM) MCF7: control 83.26 ± 1.1
[14] = MTT, 72 h incubation, HCT116 colon, read-out: IC50, μM ± SEM HCT116
[15] = log of observed IC50 (μM), HCT116, read-out: Log(observed property) (converted)

| SMILES | IC50 [1, 14] | SI (selectivity index) HCT116 [1] | 1/(observed property) [2] | IC50 [2] | SI (selectivity index) PaCa2 [2] | IC50 [3] | SI (selectivity index) MCF7 [3] | IC50 [4] | IC50 [5] | inhibition at 10 µM [6] | VEGFR-2 pg/mL ± SEM HCT116 [6] | inhibition at 10 µM [7] | VEGFR-2 pg/mL ± SEM PaCa2 [7] | inhibition at 10 µM [8] | VEGFR-2 pg/mL ± SEM MCF7 [8] | inhibition at 10 µM [9] | inhibition at 10 µM [10] | SI (selectivity index, COX-2/COX-1) [10] | TNF-α pg/mL (± SEM) HCT116 [11] | TNF-α pg/mL (± SEM) PaCa2 [12] | further results |
| --- | --- | --- | --- | --- | --- | --- | --- | --- | --- | --- | --- | --- | --- | --- | --- | --- | --- | --- | --- | --- | --- |
| CCOP(=O)(OCC)N1C/C(=C\c2ccc(Br)cc2)C(=O)C2(C1)C(c1ccc(Br)cc1)CN(C)C21C(=O)Nc2ccccc21 (centres unmarked) [Compound 17l, Diethyl (E)-[5′′-(4-bromobenzylidene)-4′-(4-bromophenyl)-1′-methyl-2,4′′-dioxodispiro[indoline-3,2′-pyrrolidine-3′,3′′-piperidin]-1′′-yl]phosphonate] | 4.16 ± 0.129 µM | 1.9 | 0.1626 | 6.15 ± 0.413 µM | 1.3 | 4.85 ± 0.082 µM | 1.6 | 7.28 ± 0.316 µM | 7.85 ± 0.284 µM | 73.5% | 84.20 ± 1.5 pg/mL | 73.5% | 86.45 ± 1.2 pg/mL | 71.6% | 73.50 ± 0.8 pg/mL | 61.6 ± 1.2% | 50.3 ± 2.3% | 0.92 | 27.34 ± 1.1 pg/mL | 37.63 ± 0.8 pg/mL | IC50 [1, 15]: 4.16 µM; SI (selectivity index) A549 [4]: 1.1; TNF-α % inhibition PaCa2 [12]: 66.3%; TNF-α % inhibition MCF7 [13]: 59.6%; TNF-α pg/mL (± SEM) MCF7 [13]: 33.67 ± 1.7 pg/mL |
| CCOP(=O)(OCC)N1C/C(=C\c2ccc(C)cc2)C(=O)C2(C1)C(c1ccc(C)cc1)CN(C)C21C(=O)Nc2ccc(F)cc21 (centres unmarked) [Compound 17n, Diethyl (E)-(5-fluoro-1′-methyl-5′′-(4-methylbenzylidene)-2,4′′-dioxo-4′-(p-tolyl)dispiro[indoline-3,2′-pyrrolidine-3′,3′′-piperidin]-1′′-yl)phosphonate] | 5.09 ± 0.191 µM | > 9.8 | 0.06519 | 15.3 ± 0.911 µM | > 3.3 | 4.37 ± 0.156 µM | > 11.5 | > 50 µM | > 50 µM | 63.7% | 115.30 ± 2.2 pg/mL | 87.5% | 40.70 ± 1.6 pg/mL | 66.9% | 85.60 ± 0.7 pg/mL | 50.6 ± 2.3% | 47.3 ± 1.4% | 1.08 | 86.47 ± 2.4 pg/mL | 96.3 ± 3.0 pg/mL | IC50 [1, 15]: 5.09 µM; selectivity index (SI) [5]: high selectivity index; TNF-α % inhibition HCT116 [11]: 9.7%; TNF-α % inhibition PaCa2 [12]: 13.9%; TNF-α % inhibition MCF7 [13]: 0.1%; TNF-α pg/mL (± SEM) MCF7 [13]: 83.17 ± 4.1 pg/mL |
| CCOP(=O)(OCC)N1C/C(=C\c2ccc(F)cc2)C(=O)C2(C1)C(c1ccc(F)cc1)CN(C)C21C(=O)Nc2ccc(Cl)cc21 (centres unmarked) [Compound 17f, Diethyl (E)-[5-chloro-5′′-(4-fluorobenzylidene)-4′-(4-fluorophenyl)-1′-methyl-2,4′′-dioxodispiro[indoline-3,2′-pyrrolidine-3′,3′′-piperidin]-1′′-yl]phosphonate] | 3.72 ± 0.099 µM | 10.7 | 0.1904 | 5.25 ± 0.224 µM | 7.6 | 5.29 ± 0.175 µM | 7.5 | > 50 µM | 39.9 ± 1.16 µM | 86.2% | 43.70 ± 0.9 pg/mL | 91.6% | 27.53 ± 1.1 pg/mL | 75.6% | 63.20 ± 0.9 pg/mL | 57.6 ± 1.1% | 60.8 ± 2.7% | 1.01 | 85.46 ± 1.3 pg/mL | 109.8 ± 4.7 pg/mL | activity fold of sunitinib [2]: 3.2 fold; SI (selectivity index) A549 [4]: < 0.8; selectivity index (SI) [5]: high selectivity index; TNF-α % inhibition HCT116 [11]: 10.7%; TNF-α % inhibition MCF7 [13]: 1.0%; TNF-α pg/mL (± SEM) MCF7 [13]: 82.45 ± 4.0 pg/mL |
